First: COP(=O)(CC(=O)COc1cccc(Cl)c1)OC
Second: CNc1ncc2c(-c3cccc(Cl)c3)cc(-c3cccc(C(=O)O)c3)c(OC)c2n1
The melting point of the first is lower: 78 to 79 °C for the first, 270 °C for the second.

First: O=Cc1cc([N+](=O)[O-])c(O)c(O)c1Cl
Second: CC1CC(=O)NN=C1c1ccc(NCCNC(N)=S)c([N+](=O)[O-])c1 (stereo unspecified)
The melting point of the first is lower: 193 to 195 °C for the first, 231 to 233 °C for the second.

Compared with `N#Cc1ccc(N(Cc2ccc(OS(N)(=O)=O)c(Cl)c2)n2cnnc2)cc1-c1ccoc1`, `CCc1c(C(F)(F)F)nn(-c2ccc(S(N)(=O)=O)cc2)c1-c1ccc(OC)c(C)c1` is lower in melting point: 154 to 155 °C for the first, 135 to 136 °C for the second.

First: O=[N+]([O-])c1ccc(-n2cccn2)c(F)c1
Second: Cc1nc(C(N)=O)c2n1-c1ccc([N+](=O)[O-])cc1C(c1ccccc1Cl)=NC2
The melting point of the first is lower: 128 to 129 °C for the first, greater than 300 °C for the second.

First: CC(C)NC(=O)c1c[nH]c2ncc(-c3nn(C)c4cc(Cl)cc(F)c34)nc12
Second: CC(C)c1cccc(-c2c(-c3ccc4nn(C)cc4c3)nsc2NC(=O)[C@@H]2C[C@H]2C)n1
The melting point of the first is higher: 347 to 349 °C for the first, 142 to 144 °C for the second.

First: CC(C)(C)C(=O)ON=C(N)CN1C(=O)C2(COc3cc4c(cc32)OCO4)c2ccccc21 (stereo unspecified)
Second: COc1ccc(/C=C/C(=O)N2CC(CCl)c3c2cc(NC(=O)OC(C)(C)C)c2ccccc32)cc1 (stereo unspecified)
The melting point of the first is lower: 183 to 185 °C for the first, 185 to 186 °C for the second.

Compared with `CCCCC12CCC3=C(CCc4cc(OC)ccc43)C1CCC2O` (stereo unspecified), `CCCCC[C@H]1CC[C@H](CC(=O)c2ccc(-c3ccc(CC)cc3F)cc2)CC1` is lower in melting point: 90 to 100 °C for the first, 72 to 73 °C for the second.

First: CCCCCCCCCCCCCCCCCCOC(=O)c1ccc(C(=O)OCCCCCCCCCCCCCCCCCC)cc1
Second: C=CCOC(=O)c1ccc(CC(=O)Nc2ccc3c(c2)C(C)(C)CCC3(C)C)cc1
The melting point of the first is higher: 140 °C for the first, 49 to 50 °C for the second.

First: C#CCn1c(Sc2ccccc2)c(CC)c(=O)[nH]c1=O
Second: COC1=CC(=O)CN(Cc2ccccc2)C1
The melting point of the first is higher: 132 °C for the first, 113 to 115 °C for the second.

Compared with `CCCC(=O)c1cnc2c(C(=O)O)cccc2c1Nc1ccccc1C`, `CCCC(=O)NC(=O)C1c2ccccc2Oc2ccccc21` is higher in melting point: 179 to 180 °C for the first, 222 °C for the second.

Compared with `CCC(C)NC(=O)Nc1ccccc1C(=O)OC` (stereo unspecified), `COC(=O)c1cscc1NC(=O)NCCCCBr` is lower in melting point: 124 °C for the first, 85 to 86 °C for the second.

Compared with `CCN1CCC(O)(c2cccc(Cl)c2F)C1` (stereo unspecified), `CCN1CCN(c2cccc3c2C[C@H](NC(C)=O)CC3)CC1` is higher in melting point: 71 to 74 °C for the first, 142 to 143 °C for the second.

First: Cc1nc(-c2ccccc2)nc(N2CCCC2C(=O)N2CC(C)NC(C)C2)c1C (stereo unspecified)
Second: CCCCc1nc2c(N)nc(C)c(C)c2n1CC(C)(C)NC(=O)c1ccccc1
The melting point of the first is higher: 160 to 162 °C for the first, 150 to 152 °C for the second.

First: CCNC(=O)C1(C/C=C/c2ccccc2)c2ccccc2-c2ccccc21
Second: O=C(O)C(Cc1ccccc1)c1ccc2ccn(Cc3ccccc3)c2c1 (stereo unspecified)
The melting point of the first is lower: 144 °C for the first, 148 to 150 °C for the second.

First: CC(=O)Nc1c(Cl)cnn1-c1c(F)c(F)c(C(F)(F)F)c(F)c1F
Second: COC(=O)c1cc(-n2c(OC)nc(C(F)(F)C(F)(F)F)cc2=O)c(F)cc1Cl
The melting point of the first is lower: 45 to 47 °C for the first, 80 to 82 °C for the second.

First: C#CCOc1cc(C(=O)OC)cc(OC)c1OC
Second: COc1cc(C=Cc2c(CO)ccc(OC)c2OC)cc(OC)c1OC
The melting point of the first is lower: 72 to 73.5 °C for the first, 120 to 121 °C for the second.

First: CCOC(=O)C1CC(=O)C(C(=O)CC)C(=O)C1 (stereo unspecified)
Second: COC(=O)C1CCCN1C(=O)Cc1c(C)cc(C)cc1C (stereo unspecified)
The melting point of the first is lower: 55 to 56 °C for the first, 74 °C for the second.

First: Cc1ccc(-c2ccc(S(=O)(=O)Nc3cc(C)no3)cc2)cc1
Second: Cc1ccc(-c2c3cc(C)ccc3nc3ccc(C)cc23)cc1
The melting point of the first is lower: 194 to 198 °C for the first, 210 to 211 °C for the second.

Compared with `C=CCOc1ccc(S(=O)(=O)c2ccc(OCC=C)cc2)cc1`, `CS(=O)(=O)c1ccc(-c2oc(CO)cc(=O)c2Oc2ccc(Cl)cc2)cc1` is higher in melting point: 140 to 142 °C for the first, 227 °C for the second.

First: COc1ccc2cccc(N3C(=O)CNCC3=O)c2c1
Second: COc1ccc2ccc(OCc3ccc4ccccc4n3)cc2c1
The melting point of the first is higher: 232 °C for the first, 113 to 114 °C for the second.

Compared with `CCN(C)C(=O)c1cc(-c2ccccc2)oc1-c1ccc(OC)c(OC)c1`, `CCOC(=O)C=Cc1cccnc1OCc1ccc(OCc2nc(-c3ccco3)oc2C)c(OC)c1` is higher in melting point: 74 °C for the first, 85 to 87 °C for the second.

Compared with `C=CCc1c(OC(C)=O)c2cccnc2n(-c2ccccc2)c1=O`, `COC(=O)n1c(SCc2ccccn2)nc2ccccc21` is lower in melting point: 189 to 195 °C for the first, 78 °C for the second.

First: C1=C(CCC2CCCO2)CCN(Cc2c[nH]c3ncccc23)C1 (stereo unspecified)
Second: Cc1nc(NCCCOc2cccc(CN3CCCCC3)c2)sc1C
The melting point of the first is lower: 70 to 72 °C for the first, 123 to 125 °C for the second.

Compared with `O=C1c2cc(F)cc(F)c2CC[C@@H]1NC(=O)C(F)(F)F`, `O=C(Cc1c(-c2ccccc2)c2cc3c(cc2oc1=O)C(O)CC3)Nc1ccc(F)cc1C(F)(F)F` (stereo unspecified) is higher in melting point: 142 to 145 °C for the first, 217 to 218 °C for the second.

`CS(=O)c1cnc2c(c1)CCC(c1ccc(Cl)c(Cl)c1)O2` (stereo unspecified) and `COc1ccc(C(=O)Cc2c(Cl)cncc2Cl)c2c1OCCO2` cannot be ordered by melting point: 159 to 162 °C for the first, 158 to 160 °C for the second.

Compared with `N=C(Nc1nc(-c2ccccn2)nc2ccccc12)C(F)(F)F`, `COC(=O)C(=CN(C)C)N(C)c1nccc(-c2ccccc2)n1` is lower in melting point: 189 °C for the first, 101 °C for the second.

First: Cc1ccc(CC(C(=O)C(Cc2ccc(C)cc2C)N2C(=O)c3ccccc3C2=O)N2C(=O)c3ccccc3C2=O)c(C)c1 (stereo unspecified)
Second: O=C1C(c2ccccc2)=C(c2c(Cl)cccc2Cl)C(=O)N1c1ccc(Cl)cc1
The melting point of the first is lower: 112 °C for the first, 134 °C for the second.

First: Cn1c(COc2ccc(CC3SC(=O)NC3=O)cc2)nc2ccc(Oc3ccc4cccc(NC(=O)Nc5ccc(C(F)(F)F)cc5)c4c3)cc21 (stereo unspecified)
Second: COc1cc(C(=O)O)ccc1Cc1cccc2ccc(NC(=O)CC3CCCC3)cc12
The melting point of the first is higher: 250 to 254 °C for the first, 248 to 250 °C for the second.

Compared with `CC(C)Oc1cc(NC(=O)C2CCCCN2)c(F)cc1Cl` (stereo unspecified), `CC(=O)N(CCC1CCCCN1CCC(C(N)=O)c1ccccc1Cl)C(C)C` (stereo unspecified) is higher in melting point: 96 to 98 °C for the first, 140 to 141 °C for the second.

First: COc1ccc(-c2ccnnc2)cc1OC1CCCC1
Second: CC(C)(C)C(=O)Oc1ccc(-c2nn(C3CCCC3)c3c(F)cccc23)cc1
The melting point of the first is lower: 100 to 102 °C for the first, 105 °C for the second.

First: COC(=O)CN(CC(=O)OC)c1cc(O)cc(O)c1
Second: CCOC(=O)c1cc(=O)c(O)c(-c2ccc(O)cc2)o1
The melting point of the first is lower: 200 to 202 °C for the first, 228 to 232 °C for the second.

First: CC(=O)OC1CSC(Oc2cncc(-c3cnoc3C)c2)C(OC(C)=O)C1OC(C)=O (stereo unspecified)
Second: CC=C1CCC2C3C(OC(C)=O)CC4CC(OC(C)=O)CCC4(C)C3CCC12C (stereo unspecified)
The melting point of the first is higher: 127 °C for the first, 92 to 93 °C for the second.

First: CCc1nc2c(N)nc(C)c(C)c2n1CCCC(=O)N1CCOCC1
Second: CCOCc1nc2c(N)nc3ccccc3c2n1CCCCS(=O)(=O)NC
The melting point of the first is higher: 209 to 210 °C for the first, 170 to 172 °C for the second.

First: Cc1n[nH]c2cc(-c3nn(C(C)c4oc5cccc(F)c5c(=O)c4-c4cccc(F)c4)c4ncnc(N)c34)ccc12 (stereo unspecified)
Second: O=C1CC(c2cccc(-n3ccnc3)c2)=Nc2cc(N3CCC(O)CC3)c(-c3ccc(F)cc3)cc2N1
The melting point of the first is lower: 156 to 159 °C for the first, 238 to 240 °C for the second.

Compared with `Cc1nc2cccc3n(CCCCNS(=O)(=O)CC(F)(F)F)c(=O)c1n23`, `CCCCc1nc2c(C)nc(C)cc2n1-c1ccc(CCOC(=O)NS(=O)(=O)c2ccc(C)cc2)cc1` is higher in melting point: 116 to 118 °C for the first, 162 °C for the second.

Compared with `Cc1cc(O)cc2oc(=O)ccc12`, `O=c1cc(Sc2ccc(O)cc2)oc2cc(O)cc(O)c12` is lower in melting point: 256 °C for the first, 249 to 251 °C for the second.

First: NC[C@H](O)c1ccc2nnnn2c1
Second: CCOC(=O)c1c(Nc2c(C)cccc2Cl)n[nH]c1C
The melting point of the first is lower: 153 to 154 °C for the first, 158 to 159 °C for the second.

Compared with `CCC(CC)c1ccc(OC)c2nc(Nc3c(C)cc(Cl)cc3OC)n(C)c12`, `CCN(CC)S(=O)(=O)c1ccccc1S(=O)(=O)N=C(Nc1nc(OC)nc(OC)n1)SC` is lower in melting point: 188 to 189 °C for the first, 150 °C for the second.

First: NS(=O)(=O)c1ccccc1CN1CCCC1=O
Second: O=S(=O)(Cc1ccccc1)C1CCN(Cc2ccccc2)CC1
The melting point of the first is higher: 149 to 151 °C for the first, 120 to 121 °C for the second.

First: CN(C)C1CC=C(c2c[nH]c3ccc(NC(=N)c4cccs4)cc23)CC1 (stereo unspecified)
Second: CN(C(=O)Nc1ccc2c(ccn2C)c1)c1cccnc1
The melting point of the first is higher: 113 to 115 °C for the first, 58 to 60 °C for the second.

Compared with `O=C(NCCCCCCNC(=O)Nc1cccnc1)Nc1cccnc1`, `O=C(NC(=O)c1c(F)cccc1F)Nc1ccc(C(O)(C(F)(F)F)C(F)(F)F)cc1` is higher in melting point: 197 to 199 °C for the first, 205 to 207 °C for the second.

First: O=C(O)CCCCCOc1ccc(C2OC3C(CO)OC(n4cnc5c(Cl)ncnc54)C3O2)cc1 (stereo unspecified)
Second: COc1ccc(-c2nc(Cn3ccnc3)cs2)cc1
The melting point of the first is higher: 127 to 129 °C for the first, 89 to 90 °C for the second.

First: CCC(=O)Nc1cccc(C2(c3cc(C(=O)CC)n(CC)c3)N=C(N)N(C)C2=O)c1 (stereo unspecified)
Second: CCn1ncc(C(=O)c2ccc(S(C)(=O)=O)c(C)c2Cl)c1O
The melting point of the first is lower: 120 to 141 °C for the first, 225 to 227 °C for the second.

First: N#Cc1c2n(c3ccccc13)CCNCC2
Second: COC(=O)c1ccc2ccc(C#N)cc2c1
The melting point of the first is higher: 161 to 164 °C for the first, 136 °C for the second.

First: CNC1=NS(=O)(=O)N=C1NCCCOc1cccc(CN2CCCCC2)c1
Second: CC(C)NCC(O)COc1ccc(CCOC2CCCC2)cc1 (stereo unspecified)
The melting point of the first is higher: 182 to 184 °C for the first, 66 °C for the second.

Compared with `CC(C)=Cn1ccnc1[N+](=O)[O-]`, `COP1(=O)CC(O)C(Cl)C1` (stereo unspecified) is higher in melting point: 77 to 79 °C for the first, 82 °C for the second.

Compared with `CC[C@H](C)[C@H](NC(C)=O)C(=O)N[C@H](C(=O)N[C@@H](CC1CCCCC1)[C@@H](O)[C@@H](O)CC(C)C)[C@@H](C)CC`, `CC1(C)CC(=O)C(SCC2CCCCC2)=C(O)C1` is lower in melting point: 247 to 248 °C for the first, 67.5 to 69.5 °C for the second.

First: CC(=O)N1CCCCc2ccc(C(=O)CCCl)cc21
Second: O=C1CCCc2cc(Sc3cccc(F)c3)cc(F)c21
The melting point of the first is lower: 106 to 107 °C for the first, 126 to 127 °C for the second.

First: Cc1coc(NC(=S)Nc2c(C)cccc2Cl)n1
Second: CC(=NO)C(C)(C)NOCCNC(C)(C)C(CCN1C(=O)c2ccccc2C1=O)=NO
The melting point of the first is higher: 222 °C for the first, 74 to 75 °C for the second.

First: CC1(C)CCCC(NC(=O)OC(C)(C)C)C(=O)N1 (stereo unspecified)
Second: CCOC(=O)CCC(=O)Oc1cc([N+](=O)[O-])cc([N+](=O)[O-])c1OC(=O)CCC(=O)OCC
The melting point of the first is higher: 118 to 120 °C for the first, 60 to 63 °C for the second.

`COc1cccc(-c2cc(=O)c3ccccc3[nH]2)c1SCc1ccccc1` gave a melting point greater than 250 °C.

— a melting point compilation (Tetko et al.; mined from patent text by program, amines drawn as free bases though some values may be those of a salt)
